Assay type in all cases: functional, cell-based
In experiment [1] the test system is A549. The experiment in a line: Cytotoxicity against human A549 cells assessed as cell viability after 72 hrs by WST-8 assay. Conditions: A549, 72 h. On the technique in general: Formazan colour is commonly taken as a measure of viable cells.
Experiment [2] relates to A549. The experiment in a line: Cytocidal activity against human A549 cells assessed as cell viability at 200 nM compound X-irradiated under hypoxic conditions measured after 72 hrs by WST-8 assay.
Experiment [3] concerns A549. The experiment in a line: Cytotoxicity against human A549 cells assessed as cell viability at 200 nM compound X-irradiated under aerobic conditions measured after 72 hrs by WST-8 assay.
The subject of experiment [4] is A549. The experiment in a line: Cytotoxicity against human A549 cells assessed as cell viability under hypoxic condition at 100 nM after 72 hrs by WST-8 assay.

This note sets out measurements from ChEMBL document CHEMBL1949542, “Reductive activation of 5-fluorodeoxyuridine prodrug possessing azide methyl group by hypoxic X-irradiation” (Bioorg Med Chem Lett, 2012).

Active and inactive are the calls of the source. No cut-off for these calls is given here.

By IC50 is commonly meant the concentration that inhibits the measured activity by half. In the case of `O=c1[nH]c(=O)n([C@H]2C[C@H](O)[C@@H](CO)O2)cc1F` [FLOXURIDINE], in the experiment on A549 [1], the IC50 was found to be 47 nM.

Regarding `[N-]=[N+]=NCn1c(=O)c(F)cn([C@H]2C[C@H](O)[C@@H](CO)O2)c1=O`, the IC50 in the experiment with A549 [1] turned out to be 1470 nM. Also, the result with A549 [2], in the experiment with A549 [3] and in the experiment with A549 [4] was inactive.
